The results in this text go back to US10093630B2, “Pyrazole compounds and methods of making and using same” (ABIDE THERAPEUTICS, INC., priority 2014, dated 2018).

Assay in all cases: In vitro competitive activity-based protein profiling (gel-based, FP-Rh or HT-01 probe)
What all share (type): biochemical

Experiment [1] addresses T1, FAAH (Mus musculus, UniProt O08914).
T1 construct: Proteomes (mouse brain membrane fraction or cell lysates); from tissue; host or cells: mouse brain membrane fraction (or cell lysates, not specified)
T1 sequence (O08914 1-579): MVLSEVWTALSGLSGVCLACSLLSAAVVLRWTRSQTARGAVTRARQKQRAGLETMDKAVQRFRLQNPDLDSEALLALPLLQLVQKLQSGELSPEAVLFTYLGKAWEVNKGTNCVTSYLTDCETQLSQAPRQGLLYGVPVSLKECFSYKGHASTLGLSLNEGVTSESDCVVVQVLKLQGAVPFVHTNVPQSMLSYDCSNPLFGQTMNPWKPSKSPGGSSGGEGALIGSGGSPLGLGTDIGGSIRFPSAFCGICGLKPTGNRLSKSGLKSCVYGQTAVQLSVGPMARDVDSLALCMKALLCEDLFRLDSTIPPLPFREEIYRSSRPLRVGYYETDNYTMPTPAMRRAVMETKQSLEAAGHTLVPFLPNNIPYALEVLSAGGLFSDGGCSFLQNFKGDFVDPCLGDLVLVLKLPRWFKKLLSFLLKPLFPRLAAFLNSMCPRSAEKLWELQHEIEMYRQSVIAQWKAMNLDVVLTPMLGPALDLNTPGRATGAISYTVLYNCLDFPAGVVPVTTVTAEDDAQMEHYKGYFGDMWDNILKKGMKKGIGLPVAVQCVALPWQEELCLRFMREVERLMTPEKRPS
As to conditions: for inhibition at 1 µM: 1 μM inhibitor, read-out: % Inhibition at 1 μM, B = FAAH; for inhibition at 10 µM: 10 μM inhibitor, read-out: % Inhibition at 10 μM, B = FAAH; for IC50: mouse brain membrane fraction or cell lysates, 30 min preincubation at 37° C., read-out: Mouse (IC50 value, nM) FAAH. The method, boiled down: (§1)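 Read-out: fluorescent band intensity on SDS-PAGE gels, reporting remaining serine hydrolase activity. Before that, proteome (mouse brain membranes or cell lysates, 1.0 mg/mL) saw a range of inhibitor concentrations for 30 min at 37° C, followed by 30 min probe labelling (FP-Rh or HT-01).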

For experiment [2], the target named is T2, PLA2G7 (Mus musculus, UniProt Q60963).
T2 construct: Proteomes (mouse brain membrane fraction or cell lysates); from tissue; host or cells: mouse brain membrane fraction (or cell lysates, not specified)
T2 sequence (Q60963 22-440): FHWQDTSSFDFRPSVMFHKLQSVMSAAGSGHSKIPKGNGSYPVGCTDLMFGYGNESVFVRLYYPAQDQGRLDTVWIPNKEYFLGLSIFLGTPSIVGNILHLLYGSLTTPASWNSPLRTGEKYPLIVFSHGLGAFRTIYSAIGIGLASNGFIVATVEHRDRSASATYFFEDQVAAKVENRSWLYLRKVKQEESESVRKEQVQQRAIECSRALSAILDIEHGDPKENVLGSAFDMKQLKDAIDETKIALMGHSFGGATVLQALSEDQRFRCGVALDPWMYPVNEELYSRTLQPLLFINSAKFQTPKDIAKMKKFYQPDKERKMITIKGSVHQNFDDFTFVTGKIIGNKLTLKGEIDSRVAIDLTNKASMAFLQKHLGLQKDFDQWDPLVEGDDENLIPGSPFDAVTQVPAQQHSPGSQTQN
Particulars: for inhibition at 1 µM: 1 μM inhibitor, read-out: % Inhibition at 1 μM, D = PLA2G7; for inhibition at 10 µM: 10 μM inhibitor, read-out: % Inhibition at 10 μM, D = PLA2G7; for IC50: mouse brain membrane fraction or cell lysates, 30 min preincubation at 37° C. The method, boiled down: as §1

Experiment [3] has as its target T3, ABHD6 (Mus musculus, UniProt Q8R2Y0).
T3 construct: Proteomes (mouse brain membrane fraction or cell lysates); from tissue; host or cells: mouse brain membrane fraction (or cell lysates, not specified)
T3 sequence (Q8R2Y0 1-336): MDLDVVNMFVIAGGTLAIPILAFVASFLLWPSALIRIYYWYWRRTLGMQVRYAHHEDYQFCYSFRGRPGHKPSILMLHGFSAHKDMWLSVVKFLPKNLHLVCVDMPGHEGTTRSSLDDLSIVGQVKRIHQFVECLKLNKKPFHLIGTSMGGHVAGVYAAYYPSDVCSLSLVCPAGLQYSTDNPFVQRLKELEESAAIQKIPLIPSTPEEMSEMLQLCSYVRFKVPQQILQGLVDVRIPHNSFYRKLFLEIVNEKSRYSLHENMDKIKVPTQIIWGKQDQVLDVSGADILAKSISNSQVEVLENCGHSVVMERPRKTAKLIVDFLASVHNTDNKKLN
Particulars: for inhibition at 1 µM: 1 μM inhibitor, read-out: % Inhibition at 1 μM, C = ABHD6; for inhibition at 10 µM: 10 μM inhibitor, read-out: % Inhibition at 10 μM, C = ABHD6; for IC50: mouse brain membrane fraction or cell lysates, 30 min preincubation at 37° C., read-out: Mouse (IC50 value, nM) ABHD6. In outline: as §1

For experiment [4], the target named is T4, MAGL (Mus musculus, UniProt O35678).
T4 construct: Proteomes (mouse brain membrane fraction or cell lysates); from tissue; host or cells: mouse brain membrane fraction (or cell lysates, not specified)
T4 sequence (O35678 1-303): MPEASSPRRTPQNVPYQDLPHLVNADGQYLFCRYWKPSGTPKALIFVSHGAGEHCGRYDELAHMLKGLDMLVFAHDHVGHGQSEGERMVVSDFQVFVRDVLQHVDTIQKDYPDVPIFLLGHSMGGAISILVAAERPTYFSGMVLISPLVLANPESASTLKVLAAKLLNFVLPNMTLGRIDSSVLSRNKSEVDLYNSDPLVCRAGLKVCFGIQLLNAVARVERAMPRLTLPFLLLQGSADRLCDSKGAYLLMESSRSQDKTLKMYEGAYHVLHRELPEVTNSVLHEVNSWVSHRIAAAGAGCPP
As to conditions: for inhibition at 1 µM: 1 μM inhibitor; for inhibition at 10 µM: 10 μM inhibitor; for IC50: mouse brain membrane fraction or cell lysates, 30 min preincubation at 37° C., read-out: Mouse (IC50 value, nM) MAGL. In outline:
as §1

Read-outs that look alike come from different tables or passages of the source.

As a reminder, the inhibition is the change of the read-out against control, counted positive when it falls. One may read the IC50 as the concentration at which inhibition is half-maximal.

In the case of `O=C(N1CCN(Cc2ccc(Oc3ccccc3)cc2)CC1)n1cccn1` [Example 16, (4-(4-Phenoxybenzyl)piperazin-1-yl)(1H-pyrazol-1-yl)methanone], the inhibition at 1 µM in experiment [1] is under 25%; in experiment [2], under 25%; in experiment [3], over 75%; in experiment [4], over 75%. Also, the inhibition at 10 µM in experiment [1], in experiment [2], in experiment [3] and in experiment [4] was over 75% in each case.
For `CN(Cc1cccc(-c2ccncc2)c1)C(=O)n1cc(Cl)cn1` [Example 220, 4-Chloro-N-methyl-N-(3-(pyridin-4-yl)benzyl)-1H-pyrazole-1-carboxamide], the inhibition at 1 µM in experiment [1] is over 75%; in experiment [2] it was 25 to 75%; in experiment [3], over 75%; in experiment [4], over 75%. The inhibition at 10 µM in experiment [1], in experiment [2], in experiment [3] and in experiment [4] was over 75% in each case. Also, the half-maximal inhibitory concentration (IC50) in experiment [1] was under 100 nM; in experiment [2], over 1000 nM; in experiment [3] it was 100 to 1000 nM; in experiment [4], under 100 nM.
Consider `O=C(N1CCN(Cc2ccccc2Cl)CC1)n1cc(C(F)(F)F)cn1` [Example 275, (4-(2-Chlorobenzyl)piperazin-1-yl)(4-(trifluoromethyl)-1H-pyrazol-1-yl)methanone], for which the inhibition at 1 µM in experiment [1] (gel-based competitive ABPP), in experiment [2] (gel-based competitive ABPP), in experiment [3] (gel-based competitive ABPP) and in experiment [4] (gel-based competitive ABPP) was over 75% each time. Further, the IC50 in experiment [1], in experiment [2], in experiment [3] and in experiment [4] was under 100 nM throughout.
In the case of `N#Cc1cnn(C(=O)N2CCCN(C(=O)c3ccccc3)CC2)c1` [Example 180, 1-(4-Benzoyl-1,4-diazepane-1-carbonyl)-1H-pyrazole-4-carbonitrile], the inhibition at 1 µM is over 75% in experiment [1], under 25% in experiment [2], over 75% in experiment [3] and over 75% in experiment [4]. Also, the inhibition at 10 µM in experiment [1], in experiment [2], in experiment [3] and in experiment [4] was over 75% throughout. The IC50 was 100 to 1000 nM in experiment [1], over 1000 nM in experiment [2], over 1000 nM in experiment [3] and 100 to 1000 nM in experiment [4].
For the molecule `Cc1cnn(C(=O)N2CCN(Cc3ccc(-c4ccccc4)cc3)CC2)c1` [Example 23, (4-([1,1′-Biphenyl]-4-ylmethyl)piperazin-1-yl)(4-methyl-1H-pyrazol-1-yl)methanone], the inhibition at 1 µM is under 25% in experiment [1], under 25% in experiment [2], 25 to 75% in experiment [3] and over 75% in experiment [4]. For the same molecule, the inhibition at 10 µM in experiment [1] is 25 to 75%; in experiment [2] it was over 75%; in experiment [3] it was over 75%; in experiment [4], over 75%.
For the molecule `O=C(c1cnn(C(=O)N2CCN(Cc3cncnc3)CC2)c1)N1CCC1` [Example 92, Azetidin-1-yl(1-(4-(pyrimidin-5-ylmethyl)piperazine-1-carbonyl)-1H-pyrazol-4-yl)methanone], the inhibition at 10 µM was under 25% in experiment [1], over 75% in experiment [2], over 75% in experiment [3] and under 25% in experiment [4]. Also, the inhibition at 1 µM in experiment [2] and in experiment [3] was under 25% throughout.
As to `O=C(N1CCN(Cc2ccc(Cl)c(Cl)c2)CC1)n1cc(Cl)cn1` [Example 211, (4-Chloro-1H-pyrazol-1-yl)(4-(3,4-dichlorobenzyl)piperazin-1-yl)methanone], the inhibition at 1 µM was over 75% in experiment [1], under 25% in experiment [2], over 75% in experiment [3] and over 75% in experiment [4]. The inhibition at 10 µM in experiment [1], in experiment [2], in experiment [3] and in experiment [4] was over 75% throughout. The IC50 in experiment [1], in experiment [3] and in experiment [4] was under 100 nM throughout.
As to `CN(Cc1cccc(-c2ccncc2)c1)C(=O)n1cc(C#N)cn1` [Example 221, 4-Cyano-N-methyl-N-(3-(pyridin-4-yl)benzyl)-1H-pyrazole-1-carboxamide], the inhibition at 1 µM was over 75% in experiment [1], 25 to 75% in experiment [2], over 75% in experiment [3] and over 75% in experiment [4]. The inhibition at 10 µM was over 75% in experiment [1], under 25% in experiment [2], over 75% in experiment [3] and over 75% in experiment [4].
Take `CCN(Cc1ccc(N2CCOCC2)cc1)C(=O)n1cc(C(F)(F)F)cn1` [Example 264, N-Ethyl-N-(4-morpholinobenzyl)-4-(trifluoromethyl)-1H-pyrazole-1-carboxamide]: the inhibition at 1 µM is over 75% in experiment [1] (gel-based competitive ABPP), under 25% in experiment [2] (gel-based competitive ABPP), under 25% in experiment [3] (gel-based competitive ABPP) and over 75% in experiment [4] (gel-based competitive ABPP). The IC50 in experiment [1] was under 100 nM; in experiment [2], over 1000 nM; in experiment [3], over 1000 nM; in experiment [4] it was 100 to 1000 nM.
On to `O=C(c1cnn(C(=O)N2CCN(Cc3ccncn3)CC2)c1)N1CCCC1` [Example 82, (4-(Pyrimidin-4-ylmethyl)piperazin-1-yl)(4-(pyrrolidine-1-carbonyl)-1H-pyrazol-1-yl)methanone], for which the inhibition at 10 µM in experiment [1] was 25 to 75%; in experiment [2], over 75%; in experiment [3], over 75%; in experiment [4], under 25%. The inhibition at 1 µM in experiment [2] and in experiment [3] was under 25% in each case.
Turning to `CC(=O)N(C)CCN(C)C(=O)n1cc(C#N)cn1` [Example 181, 4-Cyano-N-methyl-N-(2-(N-methylacetamido)ethyl)-1H-pyrazole-1-carboxamide], the inhibition at 1 µM in experiment [1], in experiment [2], in experiment [3] and in experiment [4] was under 25% each time. The inhibition at 10 µM is over 75% in experiment [1], over 75% in experiment [2], over 75% in experiment [3] and under 25% in experiment [4].
